The experiment addresses T1, ABL1 G250E (Homo sapiens, UniProt P00519, G250E).
T1 construct: purchased Thermo Fisher Scientific (Life Technologies) SelectScreen
As to the kind of experiment: SelectScreen Z'LYTE. In kind it is biochemical. In a few lines: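 Compound tested in SelectScreen activity assays, Z'LYTE for CSF1R, CDK1/cyclin B and MAP2K6 and Adapta for CAMK1. ATP for CAMK1 was listed as 10, and Km app was used for CSF1R. Results are expressed in percent.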

In general, inhibition refers to the drop in the measured response relative to a control, in per cent. On to `CN(C(=O)CN1CCOCC1)c1ccc2sc3c(-c4cccc5c(=O)cc(N6CC7CCC(C6)O7)oc45)cccc3c2c1` [NU5455], for which the inhibition at 1 µM is -8.5%.

These data come from PMC6934184, “Selective DNA-PKcs inhibition extends the therapeutic index of localized radiotherapy and chemotherapy” (The Journal of Clinical Investigation, 2019).
